Several values for one entry are separate records, joined by “and”; a condition that tells them apart may be missing. Equal entries are not always repeated.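 Five concentrations, 48 hours, 96-well plates. Here, GI50 denotes the concentration required for 50% inhibition of growth. TGI: total growth inhibition.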
Columns and labels:
Test in all cases: inhibition of tumour cell growth, NCI panel, 48 h
[1] = tested on: DLD-1 colon
[2] = tested on: DMS 273 small cell lung
[3] = tested on: HOP-18 NSCLC
[4] = tested on: KM20L2 colon
[5] = tested on: LXFL 529 NSCLC
[6] = tested on: RXF-631 renal
[7] = tested on: XF 498 CNS
[8] = tested on: M19-MEL melanoma
[9] = tested on: MDA-N

Row | Compound | TGI [1] [µM] | TGI [2] [µM] | TGI [3] [µM] | TGI [4] [µM] | TGI [5] [µM] | TGI [6] [µM] | TGI [7] [µM] | TGI [8] [µM] | TGI [9] | GI50 [9] [µM] | GI50 [1] [µM] | GI50 [2] [µM] | GI50 [4] [µM] | GI50 [5] [µM]
1 | COc1ccc2ccc3c(c2c1)CN1CCc2cc(OC)c(OC)cc2C1C3 (stereo not given) | > 100 | > 100 | > 100 | > 100 | > 100 | > 100 | > 100 |  |  |  |  |  |  | 
2 | CC1OC(n2cc(F)c(=O)[nH]c2=O)CCC1O (stereo not given) | > 100 | > 100 | > 100 | > 100 | > 100 |  |  | > 100 | > 100 µM |  |  |  |  | 
3 | CCCCCCCCCCCCCC(=O)OC1CC(=O)OC1CO (stereo not given) | > 100 | > 100 | 92.3 | > 100 | > 100 |  | > 100 | > 100 |  |  |  |  |  | 
4 | O=C1NNC=Nc2ccc(cc2)S(=O)(=O)c2ccc(cc2)N=CNNC1=O |  |  |  |  |  |  |  |  | > 100 µM |  |  |  |  | 
5 | Cc1cc2c(cc1C)[n+](=O)c(C(=O)CC(=O)C(=O)Nc1c(C(C)C)cccc1C(C)C)c(C)n2[O-] |  | > 100 | > 100 | > 100 | > 100 |  | > 100 | > 100 |  |  |  |  |  | 
6 | CNC(=O)OCc1c(COC(=O)NC)c(-c2ccc(Cl)c(Cl)c2)n2c1SCC2 |  |  |  |  |  |  |  |  | 42.7 µM |  |  |  |  | 
7 | Cc1ccc(S(=O)(=O)C(CC(=O)N2CCCC2)C(=O)c2ccccc2)cc1 (stereo not given) | > 100 | > 100 | > 100 |  | > 100 | > 100 | > 100 |  |  |  |  |  |  | 
8 | Clc1ccc(C2N3CCCCC3[C@@H]3c4[nH]c5ccccc5c4CCN23)cc1 (stereo not given in full) | > 100 | > 100 | > 100 | 96.5 | > 100 |  | > 100 | 94.7 |  |  |  |  |  | 
9 | COc1cccc(-c2cc(=O)c3cc(N(C)C)ccc3[nH]2)c1 |  |  |  |  |  |  |  |  | 0.00774 µM and 0.00529 µM | 0.00154 |  |  |  | 
10 | O=C(O)Cn1ccc(=O)c2ccc([N+](=O)[O-])cc21 |  |  |  |  |  |  |  |  | > 100 µM |  |  |  |  | 
11 | O=C1CNCCCN2CCN(CCCNCC(=O)Nc3ccc(cc3)S(=O)(=O)c3ccc(cc3)NC(=O)CNCCCN3CCN(CCCNCC(=O)Nc4ccc(cc4)S(=O)(=O)c4ccc(cc4)N1)CC3)CC2 |  |  |  |  |  |  |  |  | 42.2 µM |  |  |  |  | 
12 | CC1CCC2(C(=O)O)CCC3(C)C(=CCC4C5(C)CC(O)C(O)C(C)(CO)C5C(O)CC43C)C2C1C (stereo not given) |  |  |  |  |  |  |  |  | > 57.6 µM |  |  |  |  | 
13 | CC(=O)Nc1ccccc1Sc1ccccc1 |  | > 100 | > 100 | > 100 | > 100 | > 100 | > 100 | > 100 |  |  |  |  |  | 
14 | N#CC1(Cc2ccc(N)cc2)c2ccccc2C=CN1C(=O)c1ccccc1 (stereo not given) | > 100 | > 100 | > 100 | > 100 | > 100 |  | > 100 | > 100 |  |  |  |  |  | 
15 | CC(C)CC(=O)[O-].CC(C)CC(=O)[O-].N.N.N.N.[Co+3].[O-][Cl+3]([O-])([O-])[O-] | > 100 | > 100 |  | > 100 | > 100 |  |  |  |  |  | > 100 | > 100 | > 100 | > 100
16 | COC(=O)C1=C(C(=O)OC)C2C=CC1C1C(Cl)=C(Cl)C21 (stereo not given) | > 100 | > 100 | > 100 | > 100 | > 100 | > 100 |  | > 100 |  |  |  |  |  | 
17 | N#C/C(=C/c1ccsc1)C(=O)c1ccccc1 | > 100 | > 100 | > 100 | > 100 | > 100 |  | > 100 | > 100 |  |  |  |  |  | 
18 | CCCCNC1=C(C(=O)OCC)C(=O)CO1 | > 100 | > 100 | > 100 | > 100 | > 100 |  | > 100 | > 100 |  |  |  |  |  | 

— PubChem BioAssay (NCI)
